Experiment: in-vitro permeation study utilizing modified Franz cells (flux)
Format: in vitro ADME, human
Details: diclofenac sodium, acid and potassium as single entities in formulations similar to the examples; particularly with oleic acid and dipropylene glycol
Experimental: The flux data was collected from an in-vitro permeation study utilizing modified Franz cells with stratum corneum obtained from human cadaver skin by the heat separation technique. The receiver solution for this study was 0.9% NaCl with 0.01% NaN3 in deionized water. Franz cells were maintained at about 32° C. for the duration of this study. Flux samples were analyzed by HPLC.

flux rate, drug forms fluxed as single entities: highest rate
Structure (SMILES): O=C(O)Cc1ccccc1Nc1c(Cl)cccc1Cl [diclofenac potassium]
